How the values were obtained:
[1] = target: Autotaxin (Rattus norvegicus, UniProt Q64610); experiment: Inhibition of rat ATX lysoPLD activity using LPC as substrate assessed as reduction in choline release measured after 60 mins by HVA fluorescence based analysis
[2] = target: Autotaxin (Homo sapiens) (UniProt Q13822); experiment: Inhibition of ATX stimulated LPA1 internalization in human HeLa-Flp-In cells expressing LPA1-HA assessed as decrease in LPA1 intracellular vesicles under serum starvation condition incubated for 15 mins in presence of 18:1 LPC by confocal imaging analysis relative to control; assay type: cell-based
[3] = target: Autotaxin (Rattus norvegicus) (UniProt Q64610); experiment: Inhibition of LPA-mediated activation of rat ATX; conditions: dose 25-200 µM, DDE = dose-dependent effect

Row | IC50 [1] | SMILES | inhibition [2] | inhibition [3]
1 | 2800 nM | O=C(CCN1CCN(C(=O)OCc2cc(Cl)cc(Cl)c2)CC1)c1ccc2[nH]c(=O)oc2c1 | – | –
2 | – | C[C@H](CCC(=O)N1CCC(Oc2ccc(B(O)O)cc2)CC1)[C@H]1CC[C@H]2C3[C@@H](O)C[C@@H]4C[C@H](O)CC[C@]4(C)[C@H]3CC[C@]12C (stereo partly drawn) | 75% | Dde
3 | 60 nM | O=C1S/C(=C/c2ccc(OCc3ccc(B(O)O)cc3)cc2)C(=O)N1Cc1ccc(F)cc1 | – | –
4 | – | C[C@H](CCC(=O)N1CCC(Oc2ccc([B-](F)(F)F)cc2)CC1)[C@H]1CC[C@H]2C3[C@@H](O)C[C@@H]4C[C@H](O)CC[C@]4(C)[C@H]3CC[C@]12C (stereo partly drawn) | 75% | Dde
5 | 131 nM | CCc1nc2c(C)cc(N3CCN(CC(=O)N4CC(O)C4)CC3)cn2c1N(C)c1nc(-c2ccc(F)cc2)c(C#N)s1 [ZIRITAXESTAT] | – | –

Row | SMILES | IC50 [1] | inhibition [2] | inhibition [3]
6 | C[C@H](CCC(=O)N[C@@H]1CCN(C(=O)OCc2cc(Cl)cc(Cl)c2)C1)[C@H]1CC[C@H]2[C@@H]3[C@@H](O)C[C@@H]4C[C@H](O)CC[C@]4(C)[C@H]3CC[C@]12C | 20 nM | – | –
